Source: the supplement of paper PMC10307832

Key:
Assay in all cases: relative viability (nuclei count vs DMSO), 5 days (fraction); higher = more cells survive
[1] = tested on: NCI-H1666
How it was run: (§1)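 Lung cancer cell lines, seeded in 1536-well plates, were treated the following day by pin tool with a single drug or with five library-drug doses (not always all listed) in √10 steps on top of a fixed anchor-drug dose. Cells were fixed and nuclei stained in one step after 5 days, and nuclei were counted. Relative viability is the nuclei count for treated wells divided by that for vehicle wells, reported as medians of duplicate plates.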

[2] = tested on: ABC-1
How it was run: as §1

[3] = tested on: NCI-H2126
How it was run: as §1

[4] = tested on: SK-LU-1
How it was run: as §1

[5] = tested on: LU99A
How it was run: as §1

[6] = tested on: RERF-LC-KJ
How it was run: as §1

[7] = tested on: NCI-H1755
How it was run: as §1

[8] = tested on: NCI-H322M
How it was run: as §1

[9] = tested on: LXF-289
How it was run: as §1

[10] = tested on: NCI-H1792
How it was run: as §1

[11] = tested on: NCI-H1395
How it was run: as §1

[12] = tested on: CAL-12T
How it was run: as §1

[13] = tested on: HCC-44
How it was run: as §1

[14] = tested on: NCI-H1793
How it was run: as §1

[15] = tested on: NCI-H520
How it was run: as §1

[16] = tested on: NCI-H1944
How it was run: as §1

[17] = tested on: NCI-H358
How it was run: as §1

[18] = tested on: NCI-H3122
How it was run: as §1

[19] = tested on: HCC-827
How it was run: as §1

[20] = tested on: NCI-H2347
How it was run: as §1

Structure (SMILES): Nc1cccc2c1CN(C1CCC(=O)NC1=O)C2=O (stereo not given) [Lenalidomide] + CS(=O)(=O)CCNCc1ccc(-c2ccc3ncnc(Nc4ccc(OCc5cccc(F)c5)c(Cl)c4)c3c2)o1 [Lapatinib] (partner 2 µM)
- relative viability ([1]; first compound 0.253 µM): 0.788
- relative viability ([1]; first compound 0.8 µM): 0.295
- relative viability ([1]; first compound 2.53 µM): 0.847
- relative viability ([1]; first compound 8 µM): 0.513
- relative viability ([2]; first compound 0.253 µM): 1.13
- relative viability ([2]; first compound 2.53 µM): 1.11
- relative viability ([2]; first compound 8 µM): 1.34
- relative viability ([3]; first compound 0.253 µM): 0.743
- relative viability ([3]; first compound 0.8 µM): 0.537
- relative viability ([3]; first compound 2.53 µM): 0.733
- relative viability ([3]; first compound 8 µM): 0.584
- relative viability ([4]; first compound 0.253 µM): 0.804
- relative viability ([4]; first compound 0.8 µM): 0.891
- relative viability ([4]; first compound 2.53 µM): 1.11
- relative viability ([4]; first compound 8 µM): 0.889
- relative viability ([5]; first compound 0.253 µM): 0.922
- relative viability ([5]; first compound 0.8 µM): 0.919
- relative viability ([5]; first compound 2.53 µM): 0.894
- relative viability ([5]; first compound 8 µM): 0.56
- relative viability ([6]; first compound 0.253 µM): 0.86
- relative viability ([6]; first compound 0.8 µM): 0.778
- relative viability ([6]; first compound 2.53 µM): 0.904
- relative viability ([6]; first compound 8 µM): 0.757
- relative viability ([7]; first compound 0.253 µM): 1.02
- relative viability ([7]; first compound 0.8 µM): 1
- relative viability ([7]; first compound 2.53 µM): 1.04
- relative viability ([7]; first compound 8 µM): 0.916
- relative viability ([8]; first compound 0.253 µM): 0.648
- relative viability ([8]; first compound 0.8 µM): 0.629
- relative viability ([8]; first compound 2.53 µM): 0.592
- relative viability ([8]; first compound 8 µM): 0.635
- relative viability ([9]; first compound 0.253 µM): 0.928
- relative viability ([9]; first compound 0.8 µM): 0.882
- relative viability ([9]; first compound 2.53 µM): 0.991
- relative viability ([9]; first compound 8 µM): 0.957
- relative viability ([10]; first compound 0.253 µM): 0.946
- relative viability ([10]; first compound 0.8 µM): 0.729
- relative viability ([10]; first compound 2.53 µM): 1.03
- relative viability ([10]; first compound 8 µM): 0.666
- relative viability ([11]; first compound 0.253 µM): 1.1
- relative viability ([11]; first compound 2.53 µM): 0.948
- relative viability ([11]; first compound 8 µM): 0.845
- relative viability ([12]; first compound 0.253 µM): 0.602
- relative viability ([12]; first compound 2.53 µM): 0.801
- relative viability ([12]; first compound 8 µM): 0.403
- relative viability ([13]; first compound 0.253 µM): 0.997
- relative viability ([13]; first compound 0.8 µM): 0.799
- relative viability ([13]; first compound 2.53 µM): 1.05
- relative viability ([13]; first compound 8 µM): 0.924
- relative viability ([14]; first compound 0.253 µM): 0.675
- relative viability ([14]; first compound 0.8 µM): 0.483
- relative viability ([14]; first compound 2.53 µM): 1.07
- relative viability ([14]; first compound 8 µM): 0.454
- relative viability ([15]; first compound 0.253 µM): 0.82
- relative viability ([15]; first compound 0.8 µM): 0.929
- relative viability ([15]; first compound 2.53 µM): 1.11
- relative viability ([15]; first compound 8 µM): 0.637
- relative viability ([16]; first compound 0.253 µM): 0.932
- relative viability ([16]; first compound 0.8 µM): 0.59
- relative viability ([16]; first compound 2.53 µM): 0.754
- relative viability ([16]; first compound 8 µM): 0.602
- relative viability ([17]; first compound 0.253 µM): 0.41
- relative viability ([17]; first compound 0.8 µM): 0.623
- relative viability ([17]; first compound 2.53 µM): 0.51
- relative viability ([17]; first compound 8 µM): 0.453
- relative viability ([18]; first compound 0.253 µM): 1.04
- relative viability ([18]; first compound 0.8 µM): 1.03
- relative viability ([18]; first compound 2.53 µM): 0.974
- relative viability ([18]; first compound 8 µM): 1.13
- relative viability ([19]; first compound 0.253 µM): 0.189
- relative viability ([19]; first compound 0.8 µM): 0.202
- relative viability ([19]; first compound 2.53 µM): 0.151
- relative viability ([19]; first compound 8 µM): 0.185
- relative viability ([20]; first compound 0.253 µM): 0.928
- relative viability ([20]; first compound 0.8 µM): 0.797
- relative viability ([20]; first compound 2.53 µM): 0.894
- relative viability ([20]; first compound 8 µM): 0.802

Structure (SMILES): CN1CCN(CCOc2cc(OC3CCOCC3)c3c(Nc4c(Cl)ccc5c4OCO5)ncnc3c2)CC1 [Saracatinib] + CS(=O)(=O)CCNCc1ccc(-c2ccc3ncnc(Nc4ccc(OCc5cccc(F)c5)c(Cl)c4)c3c2)o1 [Lapatinib] (partner 2 µM)
- relative viability ([1]; first compound 0.02 µM): 0.686
- relative viability ([1]; first compound 0.2 µM): 0.629
- relative viability ([1]; first compound 0.6325 µM): 0.777
- relative viability ([1]; first compound 2 µM): 0.872
- relative viability ([2]; first compound 0.02 µM): 1.16
- relative viability ([2]; first compound 0.2 µM): 0.921
- relative viability ([2]; first compound 0.6325 µM): 1.08
- relative viability ([2]; first compound 2 µM): 0.921
- relative viability ([3]; first compound 0.02 µM): 0.813
- relative viability ([3]; first compound 0.2 µM): 0.686
- relative viability ([3]; first compound 0.6325 µM): 0.732
- relative viability ([3]; first compound 2 µM): 0.626
- relative viability ([4]; first compound 0.02 µM): 0.818
- relative viability ([4]; first compound 0.2 µM): 0.572
- relative viability ([4]; first compound 0.6325 µM): 0.45
- relative viability ([4]; first compound 2 µM): 0.406
- relative viability ([5]; first compound 0.02 µM): 0.963
- relative viability ([5]; first compound 0.2 µM): 0.748
- relative viability ([5]; first compound 0.6325 µM): 0.969
- relative viability ([5]; first compound 2 µM): 0.743
- relative viability ([6]; first compound 0.02 µM): 0.893
- relative viability ([6]; first compound 0.2 µM): 0.82
- relative viability ([6]; first compound 0.6325 µM): 0.881
- relative viability ([6]; first compound 2 µM): 1.02
- relative viability ([7]; first compound 0.02 µM): 1.01
- relative viability ([7]; first compound 0.2 µM): 0.816
- relative viability ([7]; first compound 0.6325 µM): 1.1
- relative viability ([7]; first compound 2 µM): 0.965
- relative viability ([8]; first compound 0.02 µM): 0.639
- relative viability ([8]; first compound 0.2 µM): 0.607
- relative viability ([8]; first compound 0.6325 µM): 0.56
- relative viability ([8]; first compound 2 µM): 0.486
- relative viability ([9]; first compound 0.02 µM): 0.95
- relative viability ([9]; first compound 0.2 µM): 0.895
- relative viability ([9]; first compound 0.6325 µM): 0.955
- relative viability ([9]; first compound 2 µM): 0.901
- relative viability ([10]; first compound 0.02 µM): 0.968
- relative viability ([10]; first compound 0.2 µM): 0.778
- relative viability ([10]; first compound 0.6325 µM): 1.05
- relative viability ([10]; first compound 2 µM): 0.849
- relative viability ([11]; first compound 0.02 µM): 0.911
- relative viability ([11]; first compound 0.2 µM): 0.921
- relative viability ([11]; first compound 0.6325 µM): 0.953
- relative viability ([11]; first compound 2 µM): 0.733
- relative viability ([12]; first compound 0.02 µM): 0.675
- relative viability ([12]; first compound 0.2 µM): 0.678
- relative viability ([12]; first compound 0.6325 µM): 0.791
- relative viability ([12]; first compound 2 µM): 0.555
- relative viability ([13]; first compound 0.02 µM): 1.01
- relative viability ([13]; first compound 0.2 µM): 0.902
- relative viability ([13]; first compound 0.6325 µM): 1.17
- relative viability ([13]; first compound 2 µM): 1.15
- relative viability ([14]; first compound 0.02 µM): 0.894
- relative viability ([14]; first compound 0.2 µM): 0.587
- relative viability ([14]; first compound 0.6325 µM): 0.974
- relative viability ([14]; first compound 2 µM): 0.76
- relative viability ([15]; first compound 0.02 µM): 0.853
- relative viability ([15]; first compound 0.2 µM): 0.693
- relative viability ([15]; first compound 0.6325 µM): 0.708
- relative viability ([15]; first compound 2 µM): 0.574
- relative viability ([16]; first compound 0.02 µM): 0.808
- relative viability ([16]; first compound 0.6325 µM): 0.872
- relative viability ([16]; first compound 2 µM): 0.459
- relative viability ([17]; first compound 0.02 µM): 0.471
- relative viability ([17]; first compound 0.2 µM): 0.535
- relative viability ([17]; first compound 0.6325 µM): 0.418
- relative viability ([17]; first compound 2 µM): 0.384
- relative viability ([18]; first compound 0.02 µM): 1.03
- relative viability ([18]; first compound 0.6325 µM): 0.894
- relative viability ([18]; first compound 2 µM): 0.781
- relative viability ([19]; first compound 0.02 µM): 0.174
- relative viability ([19]; first compound 0.2 µM): 0.202
- relative viability ([19]; first compound 0.6325 µM): 0.199
- relative viability ([19]; first compound 2 µM): 0.163
- relative viability ([20]; first compound 0.02 µM): 0.988
- relative viability ([20]; first compound 0.2 µM): 0.817
- relative viability ([20]; first compound 0.6325 µM): 1.12
- relative viability ([20]; first compound 2 µM): 0.903
